Source: ChEMBL document CHEMBL1201862, “PubChem BioAssay data set” (2004)
Active and inactive are the calls of the source.

Tests used:
[1] = molecular target: G-protein coupled receptor 183 (Homo sapiens, UniProt P32249); assay: SAR confirmation of small molecule antagonists of the EBI2 receptor via a luminescent beta-arrestin assa.; format: functional
[2] = molecular target: Nuclear receptor subfamily 5 group A member 2 (Homo sapiens, UniProt O00482); format: functional, cell-based;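 note: HEK293T cells transfected with LRH-1 and a StAR promoter luciferase reporter; potency for inhibitors that lower LRH-1 driven reporter light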
[3] = molecular target: Steroidogenic factor 1 (Homo sapiens, UniProt Q13285); assay: Counterscreen for inverse agonists of the liver receptor homolog-1 (LRH-1; NR5A2): Luminescence-based cell-based high throughput dose response assay to identify inverse agonists of the Steroidogenic Factor 1 Nuclear Receptor (SF1; NR5A1).; format: functional
[4] = StAR promoter reporter inhibition counter-screen, dose response, counter-screen for LRH-1 inverse agonist project, cell-based, luminescence, luciferase reporter (AID 651969); format: functional
[5] = molecular target: SUMO-activating enzyme (Homo sapiens, UniProt Q9UBT2); assay: SUMOylation inhibitor hit validation, confirmation, SUMOylation inhibitor project, biochemical, AlphaScreen (AID 2018); format: functional
[6] = Artemis endonuclease inhibitor potency, dose response, biochemical, fluorescence intensity (AID 720701); format: functional;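 note: Artemis endonuclease enzyme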
[7] = HEp-2 cell cytotoxicity, dose response, cytotoxicity control for RSV inhibitor project, HTS (AID 2410); format: functional; conditions: human respiratory syncytial virus
[8] = molecular target: T1, Probable nicotinate-nucleotide adenylyltransferase (Staphylococcus aureus (strain N315), UniProt P65502); format: functional, Staphylococcus aureus subsp. aureus N315;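 for IC50 Mean: confirmatory dose-response retesting of NadD inhibitor hits first found in an ultra-high-throughput screen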
[9] = molecular target: T1, Probable nicotinate-nucleotide adenylyltransferase; format: functional, Staphylococcus aureus subsp. aureus N315; conditions: read-out: IC50_Mean
[10] = cells
[11] = inhibitors of HIV Env-driven cell fusion, dose response, cherry-pick (AID 652057); format: functional, cell-based
[12] = CEM21 lymphoblast cell cytotoxicity, dose response, cytotoxicity control for viral fusion inhibitor project, CellTiter-Glo luminescence, cherry-picked (AID 652042); format: functional, cell-based;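 note: potency for signal decrease meaning cytotoxicity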
[13] = ZM109 Env clade C HIV-1 fusion inhibitors, dose response, HeLa effector, CEM target cells, luciferase, cherry-pick (AID 652058); format: functional, cell-based
[14] = off-target signal loss in HeLa-CEM21 co-culture – HeLa F-luc CTL cells, cherry-picked, counter-screen for HIV-1 Env fusion inhibitor project, dose response (AID 652040); format: functional, cell-based;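 note: potency for signal decrease marking cytotoxic or nonspecific inhibition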
[15] = molecular target: T2, Carboxy-terminal domain RNA polymerase II polypeptide A small phosphatase 1 (Homo sapiens, UniProt Q9GZU7); assay: inhibitors of CTDSP1, concentration-response testing, biochemical assay, absorbance-based, actives from ultra-high-throughput screening (AID 540297); format: functional
T2 sequence (Q9GZU7 whole entry): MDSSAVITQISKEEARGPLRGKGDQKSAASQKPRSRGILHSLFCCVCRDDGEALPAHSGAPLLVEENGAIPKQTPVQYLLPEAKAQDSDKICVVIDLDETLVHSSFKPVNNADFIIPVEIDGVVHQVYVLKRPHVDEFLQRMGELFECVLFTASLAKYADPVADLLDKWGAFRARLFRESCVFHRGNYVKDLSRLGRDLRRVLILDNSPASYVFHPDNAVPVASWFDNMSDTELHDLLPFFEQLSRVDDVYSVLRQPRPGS

[16] = cells; format: functional, cell-based
[17] = molecular target: T3, Nuclear receptor subfamily 0 group B member 1 (Homo sapiens, UniProt P51843); format: functional, cell-based;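 note: HEK293T cells transfected with SF-1 and DAX-1 plus StAR promoter luciferase reporter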
T3 sequence (P51843 whole entry): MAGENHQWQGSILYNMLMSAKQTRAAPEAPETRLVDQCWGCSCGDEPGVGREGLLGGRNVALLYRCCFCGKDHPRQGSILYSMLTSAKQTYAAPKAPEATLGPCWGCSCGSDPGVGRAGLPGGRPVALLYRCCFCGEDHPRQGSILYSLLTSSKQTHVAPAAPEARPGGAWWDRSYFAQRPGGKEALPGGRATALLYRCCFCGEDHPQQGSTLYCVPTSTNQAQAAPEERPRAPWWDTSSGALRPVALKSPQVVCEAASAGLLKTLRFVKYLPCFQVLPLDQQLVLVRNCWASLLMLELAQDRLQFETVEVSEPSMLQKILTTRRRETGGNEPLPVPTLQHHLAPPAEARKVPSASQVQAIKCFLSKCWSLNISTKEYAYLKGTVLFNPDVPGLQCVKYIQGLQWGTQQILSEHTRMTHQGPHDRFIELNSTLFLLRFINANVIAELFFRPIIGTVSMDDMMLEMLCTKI

[18] = molecular target: Paired box protein Pax-8 (Homo sapiens, UniProt Q06710); assay: inhibitors of PAX8-driven TPO luciferase reporter, dose response, RMG-I cells, cherry-pick (AID 687027); format: functional, cell-based;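 note: luciferase reporter driven by Pax8 target thyroperoxidase promoter measured by SteadyGlo luminescence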
[19] = system: Streptococcus sp. 'group A'; assay: growth inhibition of control SK(-) GAS strain, dose response, counter-screen for streptokinase expression inhibitor project, luminescence, kanamycin, BacTiterGlo, confirmation (AID 1900); format: functional, organism-based
[20] = system: Streptococcus; assay: Group A Streptococcus viability loss, dose response, counter-screen for streptokinase expression inhibitor project, luminescence, BacTiterGlo (AID 1915); format: functional, organism-based;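 note: potency for reduction of bacterial viability or growth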
[21] = molecular target: Albumin (Bos taurus, UniProt P02769); assay: Counterscreen for inhibitors of T-cell receptor (TCR)-CD3 interaction: Fluorescence-based biochemical high throughput dose response assay to identify inhibitors of T-cell receptor (TCR)-CD3 interaction using a TAMRA-labeled BSA probe.; format: functional
[22] = miR-122 activators in hepatoma reporter cells, dose response, cell-based, Huh7 psiCHECK-miR122, Renilla luciferase, cherry-picked (AID 651956); format: functional;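 note: huh7 hepatoma cells stably carrying a psiCHECK-2 miR-122 sensor plasmid; renilla luciferase signal reporting endogenous miR-122 activity after 48 h compound exposure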

T1 sequence (P65502 whole entry): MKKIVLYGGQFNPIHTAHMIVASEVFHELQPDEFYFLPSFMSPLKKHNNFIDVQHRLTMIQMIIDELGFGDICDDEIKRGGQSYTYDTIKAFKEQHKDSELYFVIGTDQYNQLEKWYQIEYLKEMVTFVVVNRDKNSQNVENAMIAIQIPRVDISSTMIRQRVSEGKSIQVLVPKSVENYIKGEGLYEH
Steroidogenic factor 1, sequence (Q13285 whole entry): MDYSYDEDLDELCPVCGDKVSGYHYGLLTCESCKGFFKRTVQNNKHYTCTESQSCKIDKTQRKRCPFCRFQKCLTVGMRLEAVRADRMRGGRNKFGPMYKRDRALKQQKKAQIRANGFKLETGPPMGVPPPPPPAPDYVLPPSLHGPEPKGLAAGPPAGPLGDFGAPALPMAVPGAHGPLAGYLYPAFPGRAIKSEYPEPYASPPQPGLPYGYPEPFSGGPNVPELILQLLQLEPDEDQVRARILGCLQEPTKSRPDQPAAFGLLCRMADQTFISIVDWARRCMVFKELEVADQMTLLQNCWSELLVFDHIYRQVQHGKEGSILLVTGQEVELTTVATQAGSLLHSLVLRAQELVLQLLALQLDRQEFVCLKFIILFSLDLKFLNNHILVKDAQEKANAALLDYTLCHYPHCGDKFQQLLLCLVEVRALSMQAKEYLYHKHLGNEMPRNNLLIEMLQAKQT
Nuclear receptor subfamily 5 group A member 2, sequence (O00482 whole entry): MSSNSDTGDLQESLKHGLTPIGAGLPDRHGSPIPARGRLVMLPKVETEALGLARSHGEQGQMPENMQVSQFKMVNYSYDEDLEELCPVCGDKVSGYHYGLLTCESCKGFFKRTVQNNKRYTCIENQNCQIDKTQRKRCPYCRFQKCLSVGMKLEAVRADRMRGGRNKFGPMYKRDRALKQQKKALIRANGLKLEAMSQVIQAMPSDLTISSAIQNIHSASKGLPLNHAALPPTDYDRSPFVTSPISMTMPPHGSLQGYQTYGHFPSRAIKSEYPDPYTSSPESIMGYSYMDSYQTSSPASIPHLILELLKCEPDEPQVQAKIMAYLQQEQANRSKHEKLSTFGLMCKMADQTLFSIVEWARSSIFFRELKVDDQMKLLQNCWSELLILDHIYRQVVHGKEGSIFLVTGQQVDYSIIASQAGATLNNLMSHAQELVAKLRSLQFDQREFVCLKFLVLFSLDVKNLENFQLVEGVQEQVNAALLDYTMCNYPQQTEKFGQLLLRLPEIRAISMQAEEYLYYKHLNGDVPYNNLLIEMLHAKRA
Paired box protein Pax-8, sequence (Q06710 whole entry): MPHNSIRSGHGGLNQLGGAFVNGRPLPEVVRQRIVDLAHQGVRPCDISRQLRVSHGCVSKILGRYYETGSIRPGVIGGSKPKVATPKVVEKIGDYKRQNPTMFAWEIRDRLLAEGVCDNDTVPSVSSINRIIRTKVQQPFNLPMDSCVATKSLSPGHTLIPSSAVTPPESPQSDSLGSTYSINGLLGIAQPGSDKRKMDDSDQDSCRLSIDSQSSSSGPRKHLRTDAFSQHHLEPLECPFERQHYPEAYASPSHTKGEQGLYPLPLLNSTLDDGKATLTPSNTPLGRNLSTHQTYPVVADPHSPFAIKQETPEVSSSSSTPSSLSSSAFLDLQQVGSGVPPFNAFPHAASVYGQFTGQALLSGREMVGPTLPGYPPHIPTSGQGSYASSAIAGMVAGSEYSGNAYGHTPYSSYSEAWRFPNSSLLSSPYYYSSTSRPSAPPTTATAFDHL
G-protein coupled receptor 183, sequence (P32249 whole entry): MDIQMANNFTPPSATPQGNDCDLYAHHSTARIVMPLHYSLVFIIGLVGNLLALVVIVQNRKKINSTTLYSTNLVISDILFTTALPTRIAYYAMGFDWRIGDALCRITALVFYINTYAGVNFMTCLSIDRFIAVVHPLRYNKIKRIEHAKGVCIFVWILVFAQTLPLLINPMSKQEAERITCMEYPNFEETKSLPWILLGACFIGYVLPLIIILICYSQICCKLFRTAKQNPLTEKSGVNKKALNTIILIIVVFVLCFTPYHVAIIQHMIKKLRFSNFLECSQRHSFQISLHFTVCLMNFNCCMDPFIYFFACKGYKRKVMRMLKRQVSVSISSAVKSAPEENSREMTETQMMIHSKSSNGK
Albumin, sequence (P02769 whole entry): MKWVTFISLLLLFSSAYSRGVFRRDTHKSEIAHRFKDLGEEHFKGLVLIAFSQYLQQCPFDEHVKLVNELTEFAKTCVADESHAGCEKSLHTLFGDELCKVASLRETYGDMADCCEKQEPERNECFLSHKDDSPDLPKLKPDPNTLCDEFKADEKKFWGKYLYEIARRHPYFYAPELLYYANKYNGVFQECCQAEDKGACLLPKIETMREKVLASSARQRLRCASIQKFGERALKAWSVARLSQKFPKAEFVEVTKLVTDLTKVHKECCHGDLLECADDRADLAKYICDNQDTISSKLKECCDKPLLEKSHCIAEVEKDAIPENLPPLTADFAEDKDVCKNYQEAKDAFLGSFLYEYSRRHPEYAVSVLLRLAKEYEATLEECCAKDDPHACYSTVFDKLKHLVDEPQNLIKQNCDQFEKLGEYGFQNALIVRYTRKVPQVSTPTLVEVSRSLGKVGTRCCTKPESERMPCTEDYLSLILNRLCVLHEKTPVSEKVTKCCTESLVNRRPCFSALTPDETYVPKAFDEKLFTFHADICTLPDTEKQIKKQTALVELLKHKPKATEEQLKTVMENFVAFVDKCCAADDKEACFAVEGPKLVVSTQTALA
SUMO-activating enzyme, sequence (Q9UBE0 whole entry): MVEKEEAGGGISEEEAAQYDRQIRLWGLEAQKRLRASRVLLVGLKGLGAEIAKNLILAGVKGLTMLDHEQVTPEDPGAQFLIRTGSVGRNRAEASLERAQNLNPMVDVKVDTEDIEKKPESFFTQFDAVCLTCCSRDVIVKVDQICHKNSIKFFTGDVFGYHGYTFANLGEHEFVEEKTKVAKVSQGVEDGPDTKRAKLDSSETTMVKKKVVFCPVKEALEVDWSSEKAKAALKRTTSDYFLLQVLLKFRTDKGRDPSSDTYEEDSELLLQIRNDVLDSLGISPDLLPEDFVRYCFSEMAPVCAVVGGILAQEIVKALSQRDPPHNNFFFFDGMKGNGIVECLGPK
SUMO-activating enzyme, sequence (Q9UBT2 whole entry): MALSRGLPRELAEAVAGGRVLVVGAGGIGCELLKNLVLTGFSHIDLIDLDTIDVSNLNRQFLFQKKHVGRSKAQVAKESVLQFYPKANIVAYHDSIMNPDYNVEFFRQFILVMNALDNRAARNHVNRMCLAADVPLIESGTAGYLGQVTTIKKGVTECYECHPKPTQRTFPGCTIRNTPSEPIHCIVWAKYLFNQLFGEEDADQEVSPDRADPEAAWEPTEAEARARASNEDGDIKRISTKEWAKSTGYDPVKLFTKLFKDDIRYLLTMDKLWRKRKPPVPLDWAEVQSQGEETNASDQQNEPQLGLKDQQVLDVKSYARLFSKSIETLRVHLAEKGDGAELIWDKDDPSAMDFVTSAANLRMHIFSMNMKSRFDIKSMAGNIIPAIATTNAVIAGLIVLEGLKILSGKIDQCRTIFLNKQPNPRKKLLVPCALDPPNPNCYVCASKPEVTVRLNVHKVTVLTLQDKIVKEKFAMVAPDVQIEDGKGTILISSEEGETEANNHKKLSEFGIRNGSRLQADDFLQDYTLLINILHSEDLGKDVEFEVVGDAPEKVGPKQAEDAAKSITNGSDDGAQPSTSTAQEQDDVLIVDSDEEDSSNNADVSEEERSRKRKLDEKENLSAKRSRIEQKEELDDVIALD

With O=C(CCCc1ccc(Br)cc1)N1CCN(Cc2ccc(Cl)cc2)CC1 the IC50 [1] was > 1 µM (inactive).
For CCCN(CC(=O)Nc1ccccc1C)CC(=O)Nc1ccc(Br)cc1F, the IC50 [2] was 10.6 µM (inactive), the IC50 [3] was 1.33 µM (active) and the IC50 [4] was 35.1 µM (inactive).
In the case of COc1cc(OC)cc(-c2oc3cccnc3c2C#CCCO)c1, the IC50 [2] was 1.87 µM (active), the IC50 [3] was 0.443 µM (active) and the IC50 [4] was 27.3 µM (inactive).
In the case of O=C(Nc1cccc2nsnc12)c1ccc(-c2cccc(Cl)c2)o1, the IC50 [5] was 18.3 µM (active) and the IC50 [6] was > 20 µM (inactive).
With O=S(=O)(c1cccc(Cl)c1)N1CCCC(c2nc(O)c3nnn(Cc4ccc5c(c4)OCCO5)c3n2)C1 (configuration not stated) the CC50 [7] was 11.3 µM (active), the IC50 [8] was 9.91 µM (active) and the IC50 [9] was 30.5 µM (active). The IC50 [10] was 10.3 µM (active).
With C[C@H](O)[C@@H]1C(=O)N2CCc3c([nH]c4cccc(-c5ccccc5)c34)[C@@H]2C[C@@H]1N(C)C(=O)OCc1ccccc1 the AC50 [11] was 5.22 µM (active), the AC50 [12] was 32.5 µM (active) and the AC50 [13] was 3.65 µM (active). For the same compound, the AC50 [14] was 3.94 µM (active).
For Cc1noc(C)c1NC(=O)N(C)C[C@@H]1Oc2c(NC(=O)c3ccncc3)cccc2C(=O)N([C@H](C)CO)C[C@@H]1C, the IC50 [15] was 7.66 µM (active), the IC50 [8] was 27.3 µM (active) and the IC50 [9] was 38.7 µM (active).
With COc1ccc(-c2cnc3c(NC=O)cc(-c4ccccc4OC)cn23)cc1OC the IC50 [16] was > 67.6 µM (inactive), the IC50 [17] was > 67.6 µM (inactive) and the AC50 [18] was 1.55 µM (active).
For O=C(CNC(=O)c1ccccc1Br)N/N=C\c1cc([N+](=O)[O-])cc(Br)c1O, the EC50 [19] was 8.28 µM (active), the EC50 [20] was 8.46 µM (active) and the IC50 [21] was > 94.1 µM (inactive).
In the case of C[C@@H]1CN([C@H](C)CO)S(=O)(=O)c2ccc(C3=CCCC3)cc2O[C@@H]1CN(C)C(=O)Cc1ccncc1, the AC50 [22] was 5.84 µM (active).
